Measurements taken from patent US8703098B2, “Labelled adrenomedullin derivatives and their use for imaging and therapy” (Institut de Cardiologie de Montreal, priority 2004, dated 2014).
Ends that are not written are not given here.

How the values were obtained:
[1] = dog, in vivo, iv
Procedure: All experimental procedures were performed in accordance with regulations and ethical guidelines from Canadian Council for the Care of Laboratory Animals, and received approval by the animal ethics and research committee of the Montreal Heart Institute. Mongrel dogs weighing between 20-30 kg and presenting negative Dirofilaria imitis blood test results were anesthetized by an initial intravenous dose of pentobarbital sodium (50 mg/kg). Animals were intubated and mechanically ventilated using room air. Cutaneous electrocardiographic leads were installed, and 18F cathlon with three-way was installed on both saphenous vein for 0.9% sodium chloride perfusion, radiolabelled injection and blood collection. A right arterial femoral catheter was also inserted using the Seldinger technique for continuous blood pressure monitoring.
Purified and buffered ^99mTc-DTPA-hAM1-52 samples were injected in right saphenous vein (n=6). A series of 2 mL blood samples were collected 1 min after the initial AM injection for a 10-min period, then repeated every 5 min for the following 50-min period. […]
Plasma kinetics of ^99mTc-DTPA-hAM1-52 was fitted using a two-phase exponential decay equation with GraphPad Prism version 4.0 software. Time effects on each organ biodistribution were analyzed by two-way repeated measures ANOVA followed, when a significant interaction was found, by Bonferroni/Dunn t-test. […]

[2] = Biodistribution and pulmonary retention of 125I-rAM(1-50) in rats after intravenous or intra-arterial injection; format: in vivo, rat; conditions: drug given 5 min before tracer
Procedure: (§1) All experimental procedures were performed in accordance with the regulations and ethical guidelines from Canadian Council for the Care of Laboratory Animals, and received approval by the Animal Ethics and Research Committee of the Montreal Heart Institute. Male Sprague-Dawley rats (Charles River), weighing between 400-450 g, were anaesthetized by an initial intramuscular dose of xylazine (10 mg/kg of body weight) and ketamine (50 mg/kg of body weight), followed by an intra-peritoneal injection of heparin (2000 units; Sigma). Catheters were inserted into the right carotid artery and jugular vein. Heart rate and systemic blood pressure were monitored continuously. […] Venous and arterial blood samples (3 ml) were collected and centrifuged (1875 g, 15 min, 4° C.) and the plasma saved for subsequent measurement of irAM (immunoreactive AM). A similar amount of saline was infused into the animals to prevent hypovolaemia.
The animals were then killed and the lungs, liver, kidneys (en bloc with the adrenal glands) and heart were removed and gravity drained. […] Results are expressed as a percentage of total radioactivity injected.
The drugs were given by either intraarterial (n=10 in each group) or intravenous (n=10 in each group) injection 5 min before the ^125I-rAM(1-50) bolus. Plasma samples and tissues were treated as described above.
(§2) Multiple group comparisons were performed by factorial ANOVA, followed, when a significant interaction was found, by the Bonferroni/Dunn t test. Plasma kinetics of 125I-rAM(1-50) was fitted using a two-phase exponential decay equation with GraphPad Prism (version 4.0) software. […] Comparison between venous and arterial rAM(1-50) levels in plasma was performed with a two-tailed paired Student's t test. In the canine experiments, the effect of drugs on AM extraction was analyzed by two-tailed paired Student's t tests. A P value of <0.05 was considered significant. All results are reported as means ±S.E.M.

[3] = Plasma kinetics of 125I-rAM(1-50) after single intravenous injection in rats; format: in vivo, rat; conditions: drug given 5 min before the 125I-rAM(1-50) bolus
Procedure: as §1
The animals were then killed and the lungs, liver, kidneys (en bloc with the adrenal glands) and heart were removed and gravity drained. […] Results are expressed as a percentage of total radioactivity injected. […]
Multiple group comparisons were performed by factorial ANOVA, followed, when a significant interaction was found, by the Bonferroni/Dunn t test. […] In the canine experiments, the effect of drugs on AM extraction was analyzed by two-tailed paired Student's t tests. […]

[4] = In vivo single-pass pulmonary clearance of 125I-rAM(1-50) in dogs, single bolus indicator-dilution technique; design: species or system dog; conditions: for mean single-pass pulmonary extraction of 125I-rAM(1-50) after administration of the drug: dogs, drug as intravenous bolus of 100 nmol 5 min before second experiment, mean ±S.E.M.
Procedure: Dogs were anaesthetized and prepared as described in detail in reference, which is hereby incorporated by reference. A catheter was inserted into the carotid artery and positioned just above the aortic valve. This catheter was connected to a peristaltic pump for automated blood withdrawal. Another catheter was placed into the jugular vein and positioned in the right ventricular outflow tract to allow bolus injection of the study tracers. A bolus was prepared by adding 3.3 μCi of 125I-rAM(1-50) (2.9 pmol) to 3 ml of Evans-Blue-dye labelled albumin and 0.9% saline to give a final volume of 6 ml. The mixture was separated into three equal parts for the two successive experiments in each animal and to realize dilution-curve standards. A baseline single-bolus indicator-dilution experiment was performed.
The collected samples were processed and indicator-dilution curves constructed and analyzed as described in previously cited reference 13. Cardiac output and mean tracer AM extraction during the pulmonary transit time were computed from the curves. Mean tracer extraction corresponded to the difference between the areas of the outflow curve of the vascular reference (albumin) and that of the extracted tracer (AM). Recirculation of the tracers apparent in the terminal portion of the curves was removed by linear extrapolation of the semi-logarithmic down slopes.
as §2

CC[C@H](C)[C@H](NC(=O)[C@H](CCC(N)=O)NC(=O)[C@H](Cc1c[nH]cn1)NC(=O)[C@H](C)NC(=O)[C@H](CC(C)C)NC(=O)[C@H](CCCCN)NC(=O)[C@H](CCC(N)=O)NC(=O)[C@@H](NC(=O)[C@@H](NC(=O)[C@@H]1CSSC[C@H](NC(=O)CNC(=O)[C@H](Cc2ccccc2)NC(=O)[C@H](CO)NC(=O)[C@H](CCCNC(=N)N)NC(=O)[C@H](CC(C)C)NC(=O)CNC(=O)[C@H](CCC(N)=O)NC(=O)[C@H](Cc2ccccc2)NC(=O)[C@H](CC(N)=O)NC(=O)[C@H](CC(N)=O)NC(=O)[C@H](CCSC)NC(=O)[C@H](CO)NC(=O)[C@H](CCC(N)=O)NC(=O)[C@H](CCCNC(=N)N)NC(=O)[C@H](Cc2ccc(O)cc2)NC(=O)CN(CCN(CCN(CC(=O)O)CC(=O)O)CC(=O)O)CC(=O)O)C(=O)N[C@@H](CCCNC(=N)N)C(=O)N[C@@H](Cc2ccccc2)C(=O)NCC(=O)N[C@@H]([C@@H](C)O)C(=O)N1)[C@@H](C)O)C(C)C)C(=O)N[C@@H](Cc1ccc(O)cc1)C(=O)N[C@@H](CCC(N)=O)C(=O)N[C@@H](Cc1ccccc1)C(=O)N[C@H](C(=O)N[C@@H](CC(=O)O)C(=O)N[C@@H](CCCCN)C(=O)N[C@@H](CC(=O)O)C(=O)N[C@@H](CCCCN)C(=O)N[C@@H](CC(=O)O)C(=O)N[C@@H](CC(N)=O)C(=O)N[C@H](C(=O)N[C@@H](C)C(=O)N1CCC[C@H]1C(=O)N[C@@H](CCCNC(=N)N)C(=O)N[C@@H](CO)C(=O)N[C@@H](CCCCN)C(=O)N[C@H](C(=O)N[C@@H](CO)C(=O)N1CCC[C@H]1C(=O)N[C@@H](CCC(N)=O)C(=O)NCC(=O)N[C@@H](Cc1ccc(O)cc1)C(N)=O)[C@@H](C)CC)C(C)C)[C@@H](C)O [99mTc-DTPA-hAM1-52, metal not drawn]
ratio of rate constant for exchange between the central and peripheral compartments (k1-2/k2-1) [1]: 24.09

hAM(22-52): C-terminal AM fragment that blocks the specific AM receptor (Bachem)
effect of prior administration on 125I-rAM(1-50) activity retained in kidneys [2]: elevated the retained activity | effect of prior administration on biodistribution of 125I-rAM(1-50) [2]: did not significantly modify this distribution | effect of prior administration on pulmonary first-pass retention of 125I-rAM(1-50) (intra-arterial compared with intravenous) [2]: not affected | effect of administration prior to radiolabelled rAM(1-50) on its plasma kinetics [3]: did not modify plasma kinetics | mean single-pass pulmonary extraction of 125I-rAM(1-50) after administration of the drug [4]: 31.4±3.3%

rAM(1-50): unlabelled rat adrenomedullin, amino acids 1-50 (American Peptide) (YRQSMNQGSRSTGCRFGTCTMQKLAHQIYQFTDKDKDGMAPRNKISPQGY; ends and bridges not checked; cysteine pairing not given here)
effect of prior administration on 125I-rAM(1-50) lung activity [2]: important reduction in lung activity | effect of prior administration on amount of 125I-rAM(1-50) retained by the liver, kidneys and heart [2]: significantly increased | effect of prior administration on pulmonary first-pass retention of 125I-rAM(1-50) (intra-arterial compared with intravenous) [2]: did not decrease further the already lowered pulmonary retention after intra-arterial compared with intravenous injections | effect of administration prior to radiolabelled rAM(1-50) on its plasma kinetics [3]: did not modify plasma kinetics | mean single-pass pulmonary extraction of 125I-rAM(1-50) after administration of the drug [4]: 21.9±2.4% | mean extraction of 125I-rAM(1-50) after injection of the drug, typical experiment ([4]; same dog, second experiment (FIG. 4B)): 12%
